Patent US4257962A, “Derivatives of bicyclic lactols” (Chinoin Gyogyszer es Vegyeszeti Termekek Gyara Rt., priority 1977, dated 1981)

Test: Acute toxicity (LD50) in mice
Details: mouse, in vivo

SMILES: CCCCCOC1C[C@@H]2[C@@H](/C=C/[C@H](O)CCCCC)[C@H](O)C[C@@H]2O1 (single isomer, unassigned; (-)) [(-)-2,3,3aβ,6aβ-Tetrahydro-2-pentyloxy-5α-hydroxy-4β-(3β-hydroxy-oct-1-trans-enyl)-cyclopentano[b]furan]
- LD50: 700 mg/kg
